According to ChEMBL document CHEMBL4308864, “Targeting tyrosine kinase: Development of acridone - pyrrole - oxindole hybrids against human breast cancer” (2019):

Legend:
Format in all cases: functional
HL-60(TB) = assay: Growth inhibition of human HL-60(TB) cells assessed as cell growth at 10^-5 M incubated for 48 hrs by sulforhodamine B assay relative to control; details: HL-60, 48 h, read-out: Activity
RPMI-8226 = assay: Growth inhibition of human RPMI8226 cells assessed as cell growth at 10^-5 M incubated for 48 hrs by sulforhodamine B assay relative to control; details: RPMI-8226, 48 h, read-out: Activity
SR = assay: Growth inhibition of human SR cells assessed as cell growth at 10^-5 M incubated for 48 hrs by sulforhodamine B assay relative to control; details: read-out: Activity
A549 = assay: Growth inhibition of human A549/ATCC cells assessed as cell growth at 10^-5 M incubated for 48 hrs by sulforhodamine B assay relative to control; details: A549, 48 h, read-out: Activity
EKVX = assay: Growth inhibition of human EKVX cells assessed as cell growth at 10^-5 M incubated for 48 hrs by sulforhodamine B assay relative to control; details: read-out: Activity
HOP-62 = assay: Growth inhibition of human HOP62 cells assessed as cell growth at 10^-5 M incubated for 48 hrs by sulforhodamine B assay relative to control; details: HOP-62, 48 h, read-out: Activity
NCI-H23 = assay: Growth inhibition of human NCI-H23 cells assessed as cell growth at 10^-5 M incubated for 48 hrs by sulforhodamine B assay relative to control; details: NCI-H23, 48 h, read-out: Activity
NCI-H322M = assay: Growth inhibition of human NCI-H322M cells assessed as cell growth at 10^-5 M incubated for 48 hrs by sulforhodamine B assay relative to control; details: read-out: Activity
HCT-116 = assay: Growth inhibition of human HCT116 cells assessed as cell growth at 10^-5 M incubated for 48 hrs by sulforhodamine B assay relative to control; details: HCT-116, 48 h, read-out: Activity
HCT-15 = assay: Growth inhibition of human HCT15 cells assessed as cell growth at 10^-5 M incubated for 48 hrs by sulforhodamine B assay relative to control; details: HCT-15, 48 h, read-out: Activity
KM12 = assay: Growth inhibition of human KM12 cells assessed as cell growth at 10^-5 M incubated for 48 hrs by sulforhodamine B assay relative to control; details: KM12, 48 h, read-out: Activity
SW-620 = assay: Growth inhibition of human SW620 cells assessed as cell growth at 10^-5 M incubated for 48 hrs by sulforhodamine B assay relative to control; details: SW-620, 48 h, read-out: Activity
SF-268 = assay: Growth inhibition of human SF268 cells assessed as cell growth at 10^-5 M incubated for 48 hrs by sulforhodamine B assay relative to control; details: SF-268, 48 h, read-out: Activity
SF-295 = assay: Growth inhibition of human SF295 cells assessed as cell growth at 10^-5 M incubated for 48 hrs by sulforhodamine B assay relative to control; details: SF-295, 48 h, read-out: Activity
SF-539 = assay: Growth inhibition of human SF539 cells assessed as cell growth at 10^-5 M incubated for 48 hrs by sulforhodamine B assay relative to control; details: SF-539, 48 h, read-out: Activity
SNB-75 = assay: Growth inhibition of human SNB75 cells assessed as cell growth at 10^-5 M incubated for 48 hrs by sulforhodamine B assay relative to control; details: SNB-75, 48 h, read-out: Activity
U-251 = assay: Growth inhibition of human U251 cells assessed as cell growth at 10^-5 M incubated for 48 hrs by sulforhodamine B assay relative to control; details: U-251, 48 h, read-out: Activity
LOX IMVI = assay: Growth inhibition of human LOXIMVI cells assessed as cell growth at 10^-5 M incubated for 48 hrs by sulforhodamine B assay relative to control; details: read-out: Activity
M14 = assay: Growth inhibition of human M14 cells assessed as cell growth at 10^-5 M incubated for 48 hrs by sulforhodamine B assay relative to control; details: M14, 48 h, read-out: Activity
MDA-MB-435 = assay: Growth inhibition of human MDA-MB-435 cells assessed as cell growth at 10^-5 M incubated for 48 hrs by sulforhodamine B assay relative to control; details: MDA-MB-435, 48 h, read-out: Activity
SK-MEL-28 = assay: Growth inhibition of human SK-MEL-28 cells assessed as cell growth at 10^-5 M incubated for 48 hrs by sulforhodamine B assay relative to control; details: SK-MEL-28, 48 h, read-out: Activity
SK-MEL-5 = assay: Growth inhibition of human SK-MEL-5 cells assessed as cell growth at 10^-5 M incubated for 48 hrs by sulforhodamine B assay relative to control; details: SK-MEL-5, 48 h, read-out: Activity
UACC-257 = assay: Growth inhibition of human UACC257 cells assessed as cell growth at 10^-5 M incubated for 48 hrs by sulforhodamine B assay relative to control; details: UACC-257, 48 h, read-out: Activity
OVCAR-4 = assay: Growth inhibition of human OVCAR4 cells assessed as cell growth at 10^-5 M incubated for 48 hrs by sulforhodamine B assay relative to control; details: OVCAR-4, 48 h, read-out: Activity
NCI/ADR-RES = assay: Growth inhibition of human NCI/ADR-RES cells assessed as cell growth at 10^-5 M incubated for 48 hrs by sulforhodamine B assay relative to control; details: read-out: Activity
SK-OV-3 = assay: Growth inhibition of human SKOV3 cells assessed as cell growth at 10^-5 M incubated for 48 hrs by sulforhodamine B assay relative to control; details: SK-OV-3, 48 h, read-out: Activity
A498 = assay: Growth inhibition of human A498 cells assessed as cell growth at 10^-5 M incubated for 48 hrs by sulforhodamine B assay relative to control; details: A498, 48 h, read-out: Activity
ACHN = assay: Growth inhibition of human ACHN cells assessed as cell growth at 10^-5 M incubated for 48 hrs by sulforhodamine B assay relative to control; details: read-out: Activity
SN12C = assay: Growth inhibition of human SN12C cells assessed as cell growth at 10^-5 M incubated for 48 hrs by sulforhodamine B assay relative to control; details: read-out: Activity
UO-31 = assay: Growth inhibition of human UO31 cells assessed as cell growth at 10^-5 M incubated for 48 hrs by sulforhodamine B assay relative to control; details: UO-31, 48 h, read-out: Activity
PC-3 = assay: Growth inhibition of human PC3 cells assessed as cell growth at 10^-5 M incubated for 48 hrs by sulforhodamine B assay relative to control; details: PC-3, 48 h, read-out: Activity
BT-549 = assay: Growth inhibition of human BT549 cells assessed as cell growth at 10^-5 M incubated for 48 hrs by sulforhodamine B assay relative to control; details: BT-549, 48 h, read-out: Activity
MDA-MB-468 = assay: Growth inhibition of human MDA-MB-468 cells at 10^-5 M incubated for 48 hrs by sulforhodamine B assay relative to control; details: MDA-MB-468, 48 h, read-out: GI

| Compound | growth at 10 µM (HL-60(TB)) | growth at 10 µM (RPMI-8226) | growth at 10 µM (SR) | growth at 10 µM (A549) | growth at 10 µM (EKVX) | growth at 10 µM (HOP-62) | growth at 10 µM (NCI-H23) | growth at 10 µM (NCI-H322M) | growth at 10 µM (HCT-116) | growth at 10 µM (HCT-15) | growth at 10 µM (KM12) | growth at 10 µM (SW-620) | growth at 10 µM (SF-268) | growth at 10 µM (SF-295) | growth at 10 µM (SF-539) | growth at 10 µM (SNB-75) | growth at 10 µM (U-251) | growth at 10 µM (LOX IMVI) | growth at 10 µM (M14) | growth at 10 µM (MDA-MB-435) | further results |
| --- | --- | --- | --- | --- | --- | --- | --- | --- | --- | --- | --- | --- | --- | --- | --- | --- | --- | --- | --- | --- | --- |
| O=C1NC(=O)C(=Cc2cccn2CCCCCn2c3ccccc3c(=O)c3ccccc32)C(=O)N1 | 92.2% | 92% | 86.8% | 100% | 105% | 102% | 96.3% | 98.3% | 82.2% | 92.8% | 103% | 105% | 102% | 99.4% | 102% | 101% | 96.8% | 95.3% | 102% | 97.7% | growth at 10 µM (SK-MEL-28): 111%; growth at 10 µM (SK-MEL-5): 98.7%; growth at 10 µM (UACC-257): 104%; growth at 10 µM (OVCAR-4): 99.8%; growth at 10 µM (NCI/ADR-RES): 99.5%; growth at 10 µM (SK-OV-3): 108%; growth at 10 µM (A498): 104%; growth at 10 µM (ACHN): 105%; growth at 10 µM (SN12C): 106%; growth at 10 µM (UO-31): 79.4%; growth at 10 µM (PC-3): 91%; growth at 10 µM (BT-549): 104%; inhibition of growth at 10 µM (MDA-MB-468): 0% |
| O=C1NC(=O)C(=Cc2cccn2CCCn2c3ccccc3c(=O)c3ccccc32)C(=O)N1 | 94% | 88% | 91.8% | 94.6% | 98% | 98.1% | 104% | 98.5% | 86% | 96.5% | 99.6% | 107% | 99.7% | 98.7% | 102% | 95.7% | 92.5% | 96.9% | 102% | 104% | growth at 10 µM (SK-MEL-28): 110%; growth at 10 µM (SK-MEL-5): 95.2%; growth at 10 µM (UACC-257): 102%; growth at 10 µM (OVCAR-4): 104%; growth at 10 µM (NCI/ADR-RES): 101%; growth at 10 µM (SK-OV-3): 98.7%; growth at 10 µM (A498): 98.5%; growth at 10 µM (ACHN): 102%; growth at 10 µM (SN12C): 101%; growth at 10 µM (UO-31): 75.9%; growth at 10 µM (PC-3): 98.9%; growth at 10 µM (BT-549): 98.9%; inhibition of growth at 10 µM (MDA-MB-468): 7% |
| O=C1Nc2ccccc2/C1=C/c1cccn1CCCCCCn1c2ccccc2c(=O)c2ccccc21 | 54.5% | 25.3% | 80.8% | 87.8% | 65.3% | 63.2% | 73.6% | 97.9% | 70.4% | 23% | 12.8% | 102% | 87% | 97.2% | 100% | 92.3% | 92.4% | 91.2% | 78.2% | 96.7% | growth at 10 µM (SK-MEL-28): 111%; growth at 10 µM (SK-MEL-5): 34.7%; growth at 10 µM (UACC-257): 110%; growth at 10 µM (OVCAR-4): 53.8%; growth at 10 µM (NCI/ADR-RES): 71.8%; growth at 10 µM (SK-OV-3): 87.2%; growth at 10 µM (A498): 103%; growth at 10 µM (ACHN): 89.7%; growth at 10 µM (SN12C): 93.6%; growth at 10 µM (UO-31): 56.2%; growth at 10 µM (PC-3): 40.1%; growth at 10 µM (BT-549): 63.5%; inhibition of growth at 10 µM (MDA-MB-468): 92% |
| O=C1NC(=O)C(=Cc2cccn2CCCCCCn2c3ccccc3c(=O)c3ccccc32)C(=O)N1 | 91.3% | 73.9% | 72.2% | 95.6% | 100% | 93.1% | 84.2% | 94.1% | 71.2% | 90.3% | 97.1% | 96.9% | 97% | 97.6% | 107% | 107% | 90.5% | 89.7% | 94.4% | 102% | growth at 10 µM (SK-MEL-28): 111%; growth at 10 µM (SK-MEL-5): 85.7%; growth at 10 µM (UACC-257): 103%; growth at 10 µM (OVCAR-4): 95.4%; growth at 10 µM (NCI/ADR-RES): 92.9%; growth at 10 µM (SK-OV-3): 99.8%; growth at 10 µM (A498): 93.1%; growth at 10 µM (ACHN): 103%; growth at 10 µM (SN12C): 100%; growth at 10 µM (UO-31): 70.3%; growth at 10 µM (PC-3): 87.7%; growth at 10 µM (BT-549): 93.9%; inhibition of growth at 10 µM (MDA-MB-468): 5% |
| O=C1Nc2ccccc2/C1=C/c1cccn1CCCCn1c2ccccc2c(=O)c2ccccc21 | 60.2% | 33.5% | 80.1% | 86.3% | 86.1% | 77.4% | 77.4% | 101% | 74.2% | 31.7% | 13% | 98.8% | 83.1% | 101% | 93% | 78% | 95.1% | 82.5% | 85.1% | 92.7% | growth at 10 µM (SK-MEL-28): 105%; growth at 10 µM (SK-MEL-5): 38.6%; growth at 10 µM (UACC-257): 105%; growth at 10 µM (OVCAR-4): 65.8%; growth at 10 µM (NCI/ADR-RES): 73.9%; growth at 10 µM (SK-OV-3): 94.6%; growth at 10 µM (A498): 109%; growth at 10 µM (ACHN): 76.3%; growth at 10 µM (SN12C): 97.9%; growth at 10 µM (UO-31): 49.6%; growth at 10 µM (PC-3): 55.1%; growth at 10 µM (BT-549): 74.5%; inhibition of growth at 10 µM (MDA-MB-468): 49% |
